From publication PMC6411159, “Development of a high-throughput fluorescent no-wash sodium influx assay” (PLoS ONE, 2019)
Where two headings read alike, the source gives them in different places. Blank lines part the entries; values can stand above or below the compound they belong to.

Experiments:
TRPV4 = molecular target: T1, TRPV4 (Homo sapiens, UniProt Q9HBA0); experiment: FLIPR calcium dye assay in MDA-MB-468 breast cancer cells; format: cell-based; conditions: MDA-MB-468 cells, read-out: EC50 (increase in intracellular calcium)
T1 construct: endogenous in cells
T1 sequence (Q9HBA0 whole entry): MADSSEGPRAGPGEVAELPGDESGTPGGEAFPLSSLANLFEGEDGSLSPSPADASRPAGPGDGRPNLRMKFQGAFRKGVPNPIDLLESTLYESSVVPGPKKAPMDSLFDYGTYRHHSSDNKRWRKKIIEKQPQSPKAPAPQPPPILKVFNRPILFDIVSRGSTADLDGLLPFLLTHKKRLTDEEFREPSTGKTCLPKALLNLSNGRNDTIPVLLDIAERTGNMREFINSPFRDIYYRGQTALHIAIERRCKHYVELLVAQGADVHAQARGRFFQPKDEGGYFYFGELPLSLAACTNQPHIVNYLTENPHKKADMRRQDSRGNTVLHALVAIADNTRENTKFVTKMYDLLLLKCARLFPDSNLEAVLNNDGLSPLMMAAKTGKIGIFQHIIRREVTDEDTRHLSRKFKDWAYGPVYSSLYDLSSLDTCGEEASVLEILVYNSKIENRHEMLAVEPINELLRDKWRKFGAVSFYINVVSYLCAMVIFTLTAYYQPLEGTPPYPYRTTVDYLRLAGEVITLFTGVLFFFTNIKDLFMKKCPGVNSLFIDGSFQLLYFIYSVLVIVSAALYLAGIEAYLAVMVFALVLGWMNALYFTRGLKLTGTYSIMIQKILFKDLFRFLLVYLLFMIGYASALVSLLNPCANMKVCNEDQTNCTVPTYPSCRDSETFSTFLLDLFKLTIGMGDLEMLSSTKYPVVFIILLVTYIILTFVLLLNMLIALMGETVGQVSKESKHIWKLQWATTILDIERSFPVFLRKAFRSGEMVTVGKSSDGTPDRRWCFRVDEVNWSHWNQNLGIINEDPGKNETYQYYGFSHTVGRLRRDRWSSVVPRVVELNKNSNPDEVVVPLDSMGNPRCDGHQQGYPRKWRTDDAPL
Protocol: FLIPR Calcium 4 no-wash dye (Molecular Devices) and BD Calcium Assay (BD Biosciences) kits were diluted in physiological salt solution as per manufacturers instructions. […] Raw fluorescence readings were converted to response over baseline using the analysis tool of Screenworks 3.1.1.4 (Molecular Devices) and were expressed relative to the maximum increase in fluorescence of control responses following 5 min incubation of compounds.

hNaV1.1 = molecular target: T2, hNaV1.1 (Homo sapiens, UniProt P35498); experiment: no-wash sodium influx assay (ANG-2 with quencher Ponceau 4R), FLIPR; format: cell-based
T2 construct: host or cells: HEK293
Source text: (§1) […]. […] Data are presented as mean±SEM.

hNaV1.2 = hNaV1.2 (Homo sapiens, UniProt Q99250); experiment: cell-based
hNaV1.2, sequence (Q99250 whole entry): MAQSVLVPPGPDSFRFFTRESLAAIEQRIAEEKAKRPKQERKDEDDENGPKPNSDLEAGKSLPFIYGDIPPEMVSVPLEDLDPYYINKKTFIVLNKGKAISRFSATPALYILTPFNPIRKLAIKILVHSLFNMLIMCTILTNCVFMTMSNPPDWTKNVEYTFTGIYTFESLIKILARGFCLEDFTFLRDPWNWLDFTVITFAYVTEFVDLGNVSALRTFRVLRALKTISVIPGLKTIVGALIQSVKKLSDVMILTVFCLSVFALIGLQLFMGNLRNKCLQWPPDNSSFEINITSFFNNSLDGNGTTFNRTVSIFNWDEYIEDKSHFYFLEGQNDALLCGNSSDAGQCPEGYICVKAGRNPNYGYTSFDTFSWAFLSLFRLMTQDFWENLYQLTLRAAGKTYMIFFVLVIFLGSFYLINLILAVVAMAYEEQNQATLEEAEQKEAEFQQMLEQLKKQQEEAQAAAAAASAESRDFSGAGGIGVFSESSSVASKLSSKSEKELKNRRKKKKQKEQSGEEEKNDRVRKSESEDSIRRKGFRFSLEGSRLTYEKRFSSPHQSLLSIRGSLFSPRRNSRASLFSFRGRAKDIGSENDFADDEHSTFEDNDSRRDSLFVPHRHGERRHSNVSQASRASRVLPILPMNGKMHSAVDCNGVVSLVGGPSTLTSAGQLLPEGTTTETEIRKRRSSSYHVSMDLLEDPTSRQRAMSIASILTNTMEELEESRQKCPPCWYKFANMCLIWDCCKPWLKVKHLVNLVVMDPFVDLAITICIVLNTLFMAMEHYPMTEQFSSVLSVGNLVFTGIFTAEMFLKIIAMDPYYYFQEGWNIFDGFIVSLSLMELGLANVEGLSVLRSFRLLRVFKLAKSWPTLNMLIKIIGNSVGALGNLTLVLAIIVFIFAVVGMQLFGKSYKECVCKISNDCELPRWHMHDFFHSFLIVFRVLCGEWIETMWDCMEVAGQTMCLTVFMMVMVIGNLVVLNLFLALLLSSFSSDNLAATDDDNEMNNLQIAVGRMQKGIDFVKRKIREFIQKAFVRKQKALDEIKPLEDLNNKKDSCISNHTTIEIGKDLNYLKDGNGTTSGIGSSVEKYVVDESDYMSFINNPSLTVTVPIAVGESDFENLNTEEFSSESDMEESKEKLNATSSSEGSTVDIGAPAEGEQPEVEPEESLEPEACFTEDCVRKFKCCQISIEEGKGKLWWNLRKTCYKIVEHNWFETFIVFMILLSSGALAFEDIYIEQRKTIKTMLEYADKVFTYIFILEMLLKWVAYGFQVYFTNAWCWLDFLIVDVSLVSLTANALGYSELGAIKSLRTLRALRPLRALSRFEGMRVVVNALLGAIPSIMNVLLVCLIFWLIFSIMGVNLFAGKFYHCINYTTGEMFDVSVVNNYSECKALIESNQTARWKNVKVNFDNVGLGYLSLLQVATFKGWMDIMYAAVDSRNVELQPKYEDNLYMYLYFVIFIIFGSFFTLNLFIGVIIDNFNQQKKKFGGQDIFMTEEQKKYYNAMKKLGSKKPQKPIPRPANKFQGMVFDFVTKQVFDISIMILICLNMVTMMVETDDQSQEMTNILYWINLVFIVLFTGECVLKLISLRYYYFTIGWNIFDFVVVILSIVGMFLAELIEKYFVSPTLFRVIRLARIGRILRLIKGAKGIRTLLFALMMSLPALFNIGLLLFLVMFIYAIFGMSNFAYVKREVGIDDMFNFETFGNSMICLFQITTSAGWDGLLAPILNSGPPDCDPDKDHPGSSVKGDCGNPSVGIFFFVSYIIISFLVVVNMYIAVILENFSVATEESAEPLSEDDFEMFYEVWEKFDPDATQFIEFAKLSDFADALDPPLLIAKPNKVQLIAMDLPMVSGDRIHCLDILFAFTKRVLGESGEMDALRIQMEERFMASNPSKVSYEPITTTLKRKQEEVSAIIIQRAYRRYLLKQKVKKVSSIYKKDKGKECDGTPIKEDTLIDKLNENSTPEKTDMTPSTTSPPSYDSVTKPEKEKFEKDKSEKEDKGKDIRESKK
Protocol: (§2) HEK293 cells heterologously expressing human NaV1.1–1.8 (SB Drug Discovery, Glasgow, UK) were cultured in Minimum Essential Medium (MEM) (Sigma Aldrich #M5650) containing 10% v/v fetal bovine serum (FBS) and selection antibiotics as recommended by the manufacturer. SH-SY5Y human neuroblastoma cells (Victor Diaz, Goettingen, Germany) were cultured in Roswell Park Memorial Institute (RPMI) medium containing 15% v/v FBS and supplemented with L-glutamine (1 mM). […] Cells were grown in a humidified 5% CO2 incubator at 37°C, grown to 70–80% confluence, and passaged every 3–4 days using TrypLE Express (Invitrogen) or trypsin (0.25%).
(§3) Data were plotted and analyzed using GraphPad Prism, version 6.0. For concentration-response curves, a four-parameter Hill equation with variable Hill coefficient was fitted to the data. Statistical significance was defined as P < 0.05 and was determined by an unpaired t-test assuming equal variance or one-way ANOVA with Dunnett’s post-test as indicated. Data are presented as mean±SEM.

NaV1.1–1.7 = conditions: read-out: EC50 range over NaV1.1–1.7; ANG-2 + Ponceau 4R 1 mM
Protocol: as §2, §3

NaV1.8 = tested on: NaV1.8; design: method as in PMID 14769548; conditions: cited from earlier work
[1] = absorbance spectra (UV-Vis spectrophotometry); format: physicochemical; conditions: diluted in water, NanoDrop ND1000
Protocol: Quencher dyes Allura Red AC, Amaranth, Carmine, Brilliant Black BN (Sigma Aldrich), and Ponceau 4R (pillar box red food dye) (Queen Australia) were diluted in water to the maximum concentration required to be within detection range (250–1000 μM). Their absorbance spectra were measured with a NanoDrop^TM ND1000 (ThermoFisher Scientific) UV-Vis spectrophotometer and plotted vs UV-Vis spectrum wavelength using GraphPad Prism 6.0.

adenosine receptors = tested on: adenosine receptors; design: method as in PMID 20086038; conditions: cited from earlier work
[2] = octanol-water partition of quencher dyes; format: physicochemical; conditions: 1 mM in 1:1 octanol/water, settled overnight
Protocol: Supplementary file pone.0213751.s002.pdf: S2 Fig Octanol-water partition of quencher dyes. Quenchers were added to 1:1 octanol/water volume to a 1mM concentration. Tubes were agitated and allowed to settle overnight. […] (PDF) Click here for additional data file.

human NaV1.7 = molecular target: T3, human NaV1.7 (Homo sapiens, UniProt Q15858); experiment: automated whole-cell patch-clamp electrophysiology (QPatch-16); format: cell-based; conditions: Ponceau 4R 1 mM
T3 construct: host or cells: HEK293
T3 sequence (Q15858 whole entry): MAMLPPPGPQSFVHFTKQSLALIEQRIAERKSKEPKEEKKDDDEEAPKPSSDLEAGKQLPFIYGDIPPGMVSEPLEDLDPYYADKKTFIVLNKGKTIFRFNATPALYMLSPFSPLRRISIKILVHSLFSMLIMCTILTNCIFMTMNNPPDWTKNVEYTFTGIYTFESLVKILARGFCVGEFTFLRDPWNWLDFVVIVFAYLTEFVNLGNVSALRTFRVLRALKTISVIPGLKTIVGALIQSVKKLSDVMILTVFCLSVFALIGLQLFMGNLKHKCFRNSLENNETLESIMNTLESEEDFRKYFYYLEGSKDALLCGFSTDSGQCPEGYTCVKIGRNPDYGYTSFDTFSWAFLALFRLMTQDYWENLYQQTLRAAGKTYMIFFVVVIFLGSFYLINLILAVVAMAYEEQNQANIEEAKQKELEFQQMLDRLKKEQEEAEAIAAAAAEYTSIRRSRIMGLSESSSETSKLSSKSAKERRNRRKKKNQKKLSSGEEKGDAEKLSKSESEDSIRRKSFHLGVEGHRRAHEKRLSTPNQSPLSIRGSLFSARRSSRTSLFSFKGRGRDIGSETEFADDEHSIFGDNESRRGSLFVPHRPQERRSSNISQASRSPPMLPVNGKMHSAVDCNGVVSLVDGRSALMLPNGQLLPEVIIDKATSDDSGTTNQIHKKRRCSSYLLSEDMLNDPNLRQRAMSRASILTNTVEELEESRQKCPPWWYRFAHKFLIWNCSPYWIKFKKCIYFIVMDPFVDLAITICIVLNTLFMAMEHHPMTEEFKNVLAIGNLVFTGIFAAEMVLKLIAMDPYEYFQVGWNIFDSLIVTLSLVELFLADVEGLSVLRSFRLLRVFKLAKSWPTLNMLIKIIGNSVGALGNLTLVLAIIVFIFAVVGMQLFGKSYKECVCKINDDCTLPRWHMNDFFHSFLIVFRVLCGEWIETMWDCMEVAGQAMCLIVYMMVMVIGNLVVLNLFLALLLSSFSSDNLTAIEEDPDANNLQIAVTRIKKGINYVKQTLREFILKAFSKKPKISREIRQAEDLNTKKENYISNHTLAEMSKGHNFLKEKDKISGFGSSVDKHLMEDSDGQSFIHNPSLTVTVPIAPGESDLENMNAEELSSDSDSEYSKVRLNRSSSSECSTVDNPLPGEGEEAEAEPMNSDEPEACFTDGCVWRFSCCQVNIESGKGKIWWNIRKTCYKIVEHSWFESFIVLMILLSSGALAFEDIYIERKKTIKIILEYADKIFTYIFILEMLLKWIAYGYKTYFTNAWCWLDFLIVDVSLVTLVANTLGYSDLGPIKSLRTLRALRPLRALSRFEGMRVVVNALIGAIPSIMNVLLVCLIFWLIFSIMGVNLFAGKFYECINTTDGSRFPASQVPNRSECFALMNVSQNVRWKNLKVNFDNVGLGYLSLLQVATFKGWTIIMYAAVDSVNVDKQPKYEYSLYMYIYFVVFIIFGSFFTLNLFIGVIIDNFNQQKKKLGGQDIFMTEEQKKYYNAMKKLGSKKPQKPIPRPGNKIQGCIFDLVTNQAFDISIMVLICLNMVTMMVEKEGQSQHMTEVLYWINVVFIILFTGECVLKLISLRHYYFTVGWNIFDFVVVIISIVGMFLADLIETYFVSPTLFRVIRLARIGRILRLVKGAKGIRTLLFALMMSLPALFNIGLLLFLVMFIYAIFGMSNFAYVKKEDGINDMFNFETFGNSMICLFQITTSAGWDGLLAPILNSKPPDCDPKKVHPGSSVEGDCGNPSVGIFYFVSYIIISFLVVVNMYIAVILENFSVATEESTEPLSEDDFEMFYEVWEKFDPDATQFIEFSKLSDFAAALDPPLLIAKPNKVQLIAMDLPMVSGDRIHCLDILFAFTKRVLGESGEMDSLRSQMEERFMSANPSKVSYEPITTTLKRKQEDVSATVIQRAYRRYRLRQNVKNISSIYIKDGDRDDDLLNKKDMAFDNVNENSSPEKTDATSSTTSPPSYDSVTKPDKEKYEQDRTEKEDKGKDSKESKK
Protocol: Automated whole-cell patch-clamp recordings were performed on HEK293 cells heterologously expressing human NaV1.7 (SB Drug Discovery, Glasgow, UK) using a QPatch-16 automated electrophysiology platform (Sophion Bioscience, Ballerup, Denmark) as previously described. The extracellular solution consisted of (in mM): NaCl 70, Choline chloride 70, KCl 4, CaCl2 2, MgCl2 1, HEPES 10 and glucose 10; pH 7.4; osmolarity 305 mOsm. The intracellular solution consisted of (in mM): CsF 140, EGTA/CsOH 1/5, HEPES 10 and NaCl 10; pH 7.3 with CsOH; osmolarity 320 mOsm. Ponceau 4R (1 mM) was diluted in extracellular solution and incubated for 5 min before running the voltage protocol and compared to time-matched buffer controls. Patch clamp experiments were conducted at room temperature.
I-V curves were obtained with the membrane potential held at –90 mV and a series of 500 ms step pulses that ranged from –110 to +55 mV in 5-mV increments. Conductance-voltage curves were calculated using the equation G = I/(V–Vrev), where G is conductance, I is peak current and Vrev is the reversal potential. Steady-state fast inactivation was tested using a two-pulse protocol, with 500 ms step pre-pulses (as above) preceding a 10 ms pulse of –20 mV (repetition interval 6000 ms). Both steady-state activation and inactivation curves were fitted using Boltzmann function.

hNaV1.7 = molecular target: T4, hNaV1.7 (Homo sapiens, UniProt Q15858); format: cell-based
T4 construct: host or cells: HEK293
T4 sequence (Q15858 whole entry): as above
Protocol: as §2, §3

hNaV1.4 = molecular target: T5, hNaV1.4 (Homo sapiens, UniProt P35499); experiment: no-wash sodium influx assay (ANG-2 with quencher Ponceau 4R), FLIPR; format: cell-based; conditions: hNaV1.4, response to veratridine 60 μM; read-out: IC50 (reduction of fluorescence response)
T5 construct: host or cells: HEK293
Source text: as §1

hNaV1.8 = molecular target: T6, hNaV1.8 (Homo sapiens, UniProt Q9Y5Y9); experiment: as above; format: cell-based
T6 construct: host or cells: HEK293
Source text: as §1

NaV1.1–1.8 = experiment: no-wash sodium influx assay, summary over subtypes; format: cell-based, human; conditions: ANG-2 + Ponceau 4R 1 mM; stimulation with veratridine (NaV1.1–1.7) or deltamethrin (NaV1.8); read-out: IC50 range over NaV1.1–1.8
Source text: as §1

[3] = 5 min, vs time-matched buffer control

Compound: CC(C)C[C@H](NC(=O)c1cc2ccccc2s1)C(=O)N1CCN(C(=O)[C@H](CO)NS(=O)(=O)c2ccc(Cl)cc2Cl)CC1 [GSK1016790A]
EC50 (TRPV4; BD Calcium Assay Kit): 0.04 µM | EC50 (TRPV4; FLIPR Calcium 4 no-wash dye): 0.08 µM | EC50 (TRPV4; fluo-4 with Allura Red 1 mM): 0.064 µM | EC50 (TRPV4; fluo-4 with Amaranth 1 mM): 0.07 µM | EC50 (TRPV4; fluo-4 with Brilliant Black BN 1 mM): 0.072 µM | EC50 (TRPV4; fluo-4 with Ponceau 4R 1 mM): 0.074 µM | EC50 (TRPV4; fluo-4 with wash): 0.047 µM

Compound: COc1ccc(C(=O)O[C@H]2CC[C@@]3(C)[C@@H]4CC[C@H]5[C@]6(O)C[C@H](O)[C@@]7(O)[C@@H](CN8C[C@@H](C)CC[C@H]8[C@@]7(C)O)[C@]6(O)C[C@@]53O[C@]24O)cc1OC [veratridine]
EC50 (hNaV1.1; EC50 (increase in fluorescence), hNaV1.1, ANG-2 + Ponceau 4R): 21 µM | EC50 (hNaV1.1; Veratridine pEC50, HEK293 hNaV1.1, ANG-2 + Ponceau 4R 1 mM, AUC 5 min): 21.9 µM | EC50 (hNaV1.2; EC50 (increase in fluorescence), hNaV1.2, ANG-2 + Ponceau 4R): 16 µM | EC50 (hNaV1.2; Veratridine pEC50, HEK293 hNaV1.2, ANG-2 + Ponceau 4R 1 mM, AUC 5 min): 16.6 µM | EC50 (NaV1.1–1.7): 10 to 29 µM | effect on NaV1.8 in fluorescence-based assays (NaV1.8): little effect

Compound: CC(=O)Nc1ccc(S(=O)(=O)[O-])c2cc(S(=O)(=O)[O-])c(N=Nc3ccc(N=Nc4ccc(S(=O)(=O)[O-])cc4)c4ccc(S(=O)(=O)[O-])cc34)c(O)c12.[Na+].[Na+].[Na+].[Na+] [Brilliant Black BN]
peak absorption (λ max) [1]: 575 nm | action on adenosine receptors (adenosine receptors): allosteric modulator

octanol-water partition [2]: partitioned into the octanol phase
Compound: COc1cc(S(=O)(=O)[O-])c(C)cc1N=Nc1c(O)ccc2cc(S(=O)(=O)[O-])ccc12.[Na+].[Na+] [Allura Red, Allura Red AC]

Compound: O=S(=O)([O-])c1cc(S(=O)(=O)[O-])c2c(N=Nc3ccc(S(=O)(=O)[O-])c4ccccc34)c(O)ccc2c1.[Na+].[Na+].[Na+] [Ponceau 4R]
effect on activation or inactivation kinetics of NaV1.7 (human NaV1.7): no effect | shift in the I-V curve or effect on current size (human NaV1.7): did not cause a shift in the I-V curve or affect the current size | shift in voltage-dependence of activation (V1/2 activation Δ) (human NaV1.7; [3]): –0.96 mV | shift in voltage-dependence of steady-state fast inactivation (V1/2 inactivation Δ) (human NaV1.7; [3]): –1.46 mV

Compound: Cc1c(C(=O)O)c(O)cc2c1C(=O)c1c(O)c(C3O[C@H](CO)[C@@H](O)[C@H](O)[C@H]3O)c(O)c(O)c1C2=O (stereo in doubt) [Carmine]
veratridine-induced fluorescence signal in presence of quencher (hNaV1.7): comparatively low signal | octanol-water partition [2]: partitioned into the octanol phase

Compound: CCCCNc1ccc(C(=O)OCCN(C)C)cc1 [tetracaine]
IC50 (hNaV1.1; hNaV1.1, response to veratridine 60 μM, read-out: IC50 (reduction of fluorescence response)): 52 µM | IC50 (hNaV1.4): 13 µM | IC50 (hNaV1.8; Tetracaine pIC50, hNaV1.8, 5 min pre-incubation, then deltamethrin 150 μM): 6.61 µM | IC50 (hNaV1.8; hNaV1.8, response to deltamethrin 150 μM, read-out: IC50 (reduction of fluorescence response)): 6 µM | IC50 (NaV1.1–1.8): 6 to 66 µM
